A short description of series [1]: Hygroscopicity (statement only). It counts as physicochemical.
Series [2] is described as follows: Solubility (statement only). It counts as physicochemical.
The nature of series [3]: Stability towards moisture and humidity (statement only). It counts as physicochemical.
A short description of series [4]: Chemical stability on storage (temperature and relative humidity).
From the text: Conditions evaluated include temperature and relative humidity (RH).
Setting [5] is: 25 ± 2° C./60 ± 5% RH, 0 months.
Setting [6] is: 25 ± 2° C./60 ± 5% RH, 2 months.
Setting [7] is: 25 ± 2° C./60 ± 5% RH, 3 months.

Regarding Nilotinib D-malate, the hygroscopicity result in series [1] is reported as “not hygroscopic”. Besides, the “solubility in physiologically acceptable solvents” value in series [2] is listed as “readily soluble”. Also, the “stability towards moisture and humidity” value in series [3] is reported as “relatively stable”.
As to Nilotinib D-tartrate, the hygroscopicity result in series [1] was “not hygroscopic”. In addition, the “5- methyl isomer impurity (NMT 3 ppm)” value in series [4] (2 to 8° C., 0 months) was 0.6 ppm; in series [4] (2 to 8° C., 1 month), 0.5 ppm; in series [4] (2 to 8° C., 2 months), 0.7 ppm; in series [4] (2 to 8° C., 3 months), 1.1 ppm; in series [4] (setting [5]) it was 0.6 ppm; in series [4] (25 ± 2° C./60 ± 5% RH, 1 month), 0.5 ppm. Besides, the “5- methyl isomer impurity (NMT 3 ppm)” value in series [4] (setting [6]) worked out at 0.7 ppm; in series [4] (setting [7]) it was 1.1 ppm. Besides, the “Total impurities (NMT 0.4%)” value in series [4] (2 to 8° C., 0 months) was 0.01%; in series [4] (2 to 8° C., 3 months), 0.05%; in series [4] (setting [5]) it was 0.01%; in series [4] (setting [7]), 0.04%. Further, the XRPD result in series [4] (2 to 8° C., 0 months) is recorded as “Form C1”; in series [4] (2 to 8° C., 1 month), “Stable”; in series [4] (2 to 8° C., 2 months), “Stable”; in series [4] (2 to 8° C., 3 months), “Stable”; in series [4] (setting [5]) it was “Form C1”; in series [4] (25 ± 2° C./60 ± 5% RH, 1 month), “Stable”. Besides, the XRPD entry in series [4] (setting [6]) and in series [4] (setting [7]) was “Stable” in each case. In addition, in series [4] (temperature and relative humidity (RH)), the “chemical stability / long term storage stability” value is reported as “chemically more stable”. The “stability towards moisture and humidity” value in series [3] is “relatively stable”.

These data come from US20230075170A1, “NOVEL SALTS OF NILOTINIB AND POLYMORPHIC FORMS THEREOF” (CIPLA LIMITED, priority 2020, published 2023).
